Reference: PubChem BioAssay (NCI)
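These data come from cells grown in 96-well plates and exposed to compound for 48 hours at five concentrations. TGI: concentration producing complete growth inhibition.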

Key:
Experiment in all cases: DTP human tumour cell line panel, 48 h
786-0 renal = system: 786-0 renal
A549 NSCLC = system: A549 NSCLC
ACHN renal = system: ACHN renal
CAKI-1 renal = system: CAKI-1 renal
CCRF-CEM leukemia = system: CCRF-CEM leukemia
COLO 205 colon = system: COLO 205 colon
DU-145 prostate = system: DU-145 prostate
EKVX NSCLC = system: EKVX NSCLC
HCC-2998 colon = system: HCC-2998 colon
HCT-116 colon = system: HCT-116 colon
HCT-15 colon = system: HCT-15 colon
HL-60(TB) leukemia = system: HL-60(TB) leukemia
HOP-62 NSCLC = system: HOP-62 NSCLC
HOP-92 NSCLC = system: HOP-92 NSCLC
HS 578T breast = system: HS 578T breast
HT29 colon = system: HT29 colon
IGROV1 ovarian = system: IGROV1 ovarian
K-562 leukemia = system: K-562 leukemia
KM12 colon = system: KM12 colon
LOX IMVI melanoma = system: LOX IMVI melanoma
M14 melanoma = system: M14 melanoma
MALME-3M melanoma = system: MALME-3M melanoma
MCF7 breast = system: MCF7 breast
MDA-MB-231 breast = system: MDA-MB-231 breast
MDA-MB-435 = system: MDA-MB-435
MDA-N = system: MDA-N
MOLT-4 leukemia = system: MOLT-4 leukemia
NCI-H226 lung = system: NCI-H226 lung
NCI-H23 lung = system: NCI-H23 lung
NCI-H460 lung = system: NCI-H460 lung
NCI-H522 lung = system: NCI-H522 lung
NCI/ADR-RES ovarian = system: NCI/ADR-RES ovarian
OVCAR-3 ovarian = system: OVCAR-3 ovarian
OVCAR-4 ovarian = system: OVCAR-4 ovarian
OVCAR-5 ovarian = system: OVCAR-5 ovarian
OVCAR-8 ovarian = system: OVCAR-8 ovarian
PC-3 prostate = system: PC-3 prostate
RPMI-8226 leukemia = system: RPMI-8226 leukemia
RXF 393 renal = system: RXF 393 renal
SF-268 CNS = system: SF-268 CNS
SF-295 CNS = system: SF-295 CNS
SF-539 CNS = system: SF-539 CNS
SK-MEL-28 melanoma = system: SK-MEL-28 melanoma
SK-MEL-5 melanoma = system: SK-MEL-5 melanoma
SK-OV-3 ovarian = system: SK-OV-3 ovarian
SN12C renal = system: SN12C renal
SNB-19 CNS = system: SNB-19 CNS
SNB-75 CNS = system: SNB-75 CNS
SR leukemia = system: SR leukemia
SW-620 colon = system: SW-620 colon
T-47D breast = system: T-47D breast
U251 CNS = system: U251 CNS
UACC-257 melanoma = system: UACC-257 melanoma
UACC-62 melanoma = system: UACC-62 melanoma
UO-31 renal = system: UO-31 renal

Measured: TGI

CCOC(=O)C(NC(=O)CC)(Nc1ccc(S(=O)(=O)Nc2ncccn2)cc1)C(F)(F)F (stereo not given)
> 100 µM: all assays above
